Results reported in patent US10508111B2, “6-[5-amino-6-(2-ethoxyethoxy)-imidazo[4,5-B]pyridin-3-yl]-nicotinonitrile derivatives and their use as IRAK inhibitors” (GALAPAGOS NV, priority 2015, dated 2019).

How the values were obtained:
[1] = target: T1, CDK9 (Homo sapiens, UniProt P50750); assay: Kinase selectivity profiling (focused panel), radioactive filter plate assay: CDK9; assay type: biochemical; details: PDKtide, 0.25 μM ATP, 60 min
T1 construct: purchased Millipore 14-685
Procedure: (§1) The purpose of this assay is to determine the activity and selectivity of a compound of the invention on a selected range of human kinases which may result in undesirable side-effects when inhibited (Dy & Adjei 2013; Force & Kolaja 2011).
(§2) The IC50 value for off-target kinases is determined in radioactive filter plate assays. The principle of the assays consists in the measurement of incorporated ^33P into a peptide substrate upon phosphorylation by the kinase enzyme using [γ-^33P]ATP and ATP. Unincorporated ^33P is removed by loading the samples on a filter plate (using a harvester, PerkinElmer) and 6 subsequent washing steps. Incorporated ^33P in the peptide substrate is measured by a scintillation counter (Topcount, PerkinElmer) after addition of MicroScint™-20 (PerkinElmer, 6013621) to the filter plates.
(§3) 5 μL of a water dilution series of test compound (starting from 20 μM or 6.6 μM highest concentration), from a 100% DMSO stock solution, 1/5 dilution, is added to the wells (final DMSO concentration of 1% in reaction assay). Enzyme and peptide substrate are used at optimized concentrations (cf. Table VI). The enzyme and substrate are diluted in assay buffer to a total volume of 11 μL. The reaction is started by addition of 9 μL of ATP+[γ-^33P]ATP, diluted in the same buffer as enzyme and substrate. The mixture is incubated at 30° C. The reaction is terminated by adding 25 μL of 150 mM phosphoric acid. Samples are transferred to filter plates and incorporated radioactivity is measured using a scintillation counter.
(§4) The incubation time, assay buffer composition, and concentrations of ATP, enzyme and substrate are reported in Table VI for example kinase off-target assays.
(§5) 10 μM staurosporine (1% DMSO) is used as positive control (100% inhibition); vehicle (water+1% DMSO) as negative control (0% inhibition).

[2] = test system: TNFα triggered IL-6 release in SW1353 cells; assay: SW1353 cellular selectivity assay, TNFα trigger, IL-6 ELISA readout; assay type: cell-based, human; details: TNFα trigger 10 ng/mL; for IC50: Homo sapiens; for TNFα trigger IL-6 PIN at 20 μM: percent inhibition at 20 μM compound
Text: (§6) The aim of this assay is to evaluate the selectivity of compounds of the invention for the activated TLR/IRAK-4 pathway in an in vitro human cellular assay setting. SW1353 cells are from a chondrocytic cell line and are responsive to both the interleukin 1 (IL-1) and the TNFα cytokine triggers. Both cytokine triggers induce the expression of interleukin 6 (IL-6) and MMP13 by these cells. IL-6 and MMP13 releases are used as readouts in this assay and represent a measure for the level of inhibition of the TLR/IRAK-4 pathway by the tested compound.
(§7) SW1353 cells are cultured in DMEM supplemented with 10% FBS and 1% Penicillin/Streptomycin. Cells are incubated at 37° C. in a humidified atmosphere of 5% CO2 and subcultured twice a week. During subculturing, trypsin-EDTA is used to detach the cells, followed by a neutralization step with cell culture medium. After centrifugation (1,000 rpm during 5 min), the pellet is resuspended in cell culture medium and cells are counted using an automated cell counter (Invitrogen Countess™).
(§8) Cells are used at passage 16 and plated at a density of 15,000 cells per well in 120 μL cell culture medium in 96-well culture plates. Cells are allowed to attach during overnight incubation.
(§9) SW1353 cells are pre-incubated with test compound by addition of 15 μL of 10× concentrated compound solution for 2 h at 37° C. and 5% CO2. The compounds are tested at different concentrations and prepared by 3-fold serial dilutions from the 10 mM stock solution in DMSO followed by a 1/50 dilution step in cell culture medium. Final test concentrations in the assay start from 20 μM, with subsequent 3-fold serial dilutions with equal final DMSO concentrations of 0.2%. After the compound pre-incubation step, the SW1353 cells are triggered by addition of 15 μL of 10× concentrated IL-1f (Peprotech, 200-01B) or TNFα trigger (Peprotech, 300-01A) to the wells with final assay volume of 150 μL per well and final trigger concentration of 1 ng/mL and 10 ng/mL, respectively. Negative controls are adjusted with equal DMSO concentrations without trigger. The assay plates are then incubated in a humidified incubator at 37° C. and 5% CO2. Cell supernatants are harvested 24 h and 48 h later by transferring the cell medium into a V-bottom polypropylene 96-well plate and stored at −80° C. until ELISA readout.
(§10) The levels of secreted IL-6 in the cell supernatants are quantified in an enzyme-linked immunosorbent assay (ELISA). […] Luminescence of the converted substrate is measured with a Luminoskan™ Ascent luminometer.
(§11) All controls are measured within the linear range of the human IL-6 and MMP13 standard curve of the ELISA. […]

[3] = target: T2, c-SRC (Homo sapiens, UniProt P12931); assay: Kinase selectivity profiling (focused panel), radioactive filter plate assay: c-SRC; assay type: biochemical; details: PolyGT substrate, 0.25 μM ATP, 60 min
T2 construct: purchased Carna Biosciences 08-173
T2 sequence (P12931 whole entry): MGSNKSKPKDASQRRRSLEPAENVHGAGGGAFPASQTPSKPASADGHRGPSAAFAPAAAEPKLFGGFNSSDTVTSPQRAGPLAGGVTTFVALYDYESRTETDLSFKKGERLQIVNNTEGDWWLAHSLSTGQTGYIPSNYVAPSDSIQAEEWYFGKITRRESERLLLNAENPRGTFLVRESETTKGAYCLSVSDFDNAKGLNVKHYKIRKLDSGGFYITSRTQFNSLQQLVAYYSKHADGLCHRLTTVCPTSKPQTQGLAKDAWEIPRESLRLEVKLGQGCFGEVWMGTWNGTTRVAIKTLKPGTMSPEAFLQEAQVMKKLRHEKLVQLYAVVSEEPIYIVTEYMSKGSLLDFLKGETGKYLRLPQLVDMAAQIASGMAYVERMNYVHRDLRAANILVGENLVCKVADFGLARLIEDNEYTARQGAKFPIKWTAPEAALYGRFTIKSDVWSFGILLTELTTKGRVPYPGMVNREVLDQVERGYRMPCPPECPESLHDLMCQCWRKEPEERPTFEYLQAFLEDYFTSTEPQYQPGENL
Procedure: as §1, §2, §3, §4, §5

[4] = target: T3, GSK3b (Homo sapiens, UniProt P49841); assay: Kinase selectivity profiling (focused panel), radioactive filter plate assay: GSK3b; assay type: biochemical; details: Phospho glycogen synthase peptide2, 1.5 μM ATP, 90 min
T3 construct: purchased Carna Biosciences 04-141
T3 sequence (P49841 whole entry): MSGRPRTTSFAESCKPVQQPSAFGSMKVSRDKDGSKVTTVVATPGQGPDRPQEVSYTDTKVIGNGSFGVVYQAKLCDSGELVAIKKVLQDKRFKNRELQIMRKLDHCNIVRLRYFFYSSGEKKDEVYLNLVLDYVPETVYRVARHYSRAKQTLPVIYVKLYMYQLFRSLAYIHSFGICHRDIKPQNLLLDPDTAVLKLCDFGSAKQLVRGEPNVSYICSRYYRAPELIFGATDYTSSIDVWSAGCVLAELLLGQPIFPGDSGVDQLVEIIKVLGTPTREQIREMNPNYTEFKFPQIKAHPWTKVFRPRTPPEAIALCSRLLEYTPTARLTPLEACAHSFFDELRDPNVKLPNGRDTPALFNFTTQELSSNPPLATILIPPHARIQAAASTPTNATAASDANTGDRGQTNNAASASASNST
Procedure: as §1, §2, §3, §4, §5

[5] = target: T4, CDK2 (Homo sapiens, UniProt P24941); assay: Kinase selectivity profiling (focused panel), radioactive filter plate assay: CDK2; assay type: biochemical; details: Histone H1-derived peptide, 0.1 μM ATP, 60 min
T4 construct: purchased Carna Biosciences 04-103
Procedure: as §1, §2, §3, §4, §5

[6] = test system: IL-1β triggered IL-6 release in SW1353 cells; assay: SW1353 cellular selectivity assay, IL-1β trigger, IL-6 ELISA readout; assay type: cell-based, human; details: IL-1β trigger 1 ng/mL; for IC50: Homo sapiens; for IL-1β trigger IL-6 PIN at 20 μM: percent inhibition at 20 μM compound
Text: as §6, §7, §8, §9, §10, §11

T1 sequence (P50750 whole entry): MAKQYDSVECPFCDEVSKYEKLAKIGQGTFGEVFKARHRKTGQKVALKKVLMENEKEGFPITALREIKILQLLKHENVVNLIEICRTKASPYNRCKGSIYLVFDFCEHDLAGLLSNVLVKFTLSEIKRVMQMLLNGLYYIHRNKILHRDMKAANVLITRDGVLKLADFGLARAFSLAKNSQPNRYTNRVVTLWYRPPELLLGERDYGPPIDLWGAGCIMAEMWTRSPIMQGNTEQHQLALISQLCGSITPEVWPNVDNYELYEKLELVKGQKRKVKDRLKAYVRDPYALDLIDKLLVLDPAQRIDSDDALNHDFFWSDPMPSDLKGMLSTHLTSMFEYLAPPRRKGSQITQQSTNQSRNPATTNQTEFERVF
T1 sequence (O60563 whole entry partner): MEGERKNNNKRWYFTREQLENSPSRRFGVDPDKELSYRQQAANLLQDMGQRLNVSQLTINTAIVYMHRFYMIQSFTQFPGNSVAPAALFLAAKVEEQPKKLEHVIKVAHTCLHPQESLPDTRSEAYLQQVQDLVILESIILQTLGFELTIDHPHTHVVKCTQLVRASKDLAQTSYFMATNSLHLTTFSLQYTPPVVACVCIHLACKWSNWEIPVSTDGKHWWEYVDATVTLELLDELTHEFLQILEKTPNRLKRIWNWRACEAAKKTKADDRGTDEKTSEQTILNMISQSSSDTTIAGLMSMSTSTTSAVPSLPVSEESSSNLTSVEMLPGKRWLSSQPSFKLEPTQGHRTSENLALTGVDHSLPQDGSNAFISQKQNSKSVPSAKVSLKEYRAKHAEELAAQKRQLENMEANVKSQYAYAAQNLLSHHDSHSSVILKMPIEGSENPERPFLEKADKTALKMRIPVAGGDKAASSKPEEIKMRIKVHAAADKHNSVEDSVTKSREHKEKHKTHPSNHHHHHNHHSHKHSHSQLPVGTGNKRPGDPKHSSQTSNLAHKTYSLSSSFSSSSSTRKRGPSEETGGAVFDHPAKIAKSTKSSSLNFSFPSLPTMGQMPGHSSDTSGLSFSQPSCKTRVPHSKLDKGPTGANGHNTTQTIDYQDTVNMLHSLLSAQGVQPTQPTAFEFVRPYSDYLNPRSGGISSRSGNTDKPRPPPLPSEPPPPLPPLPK

IC50 [1]	IC50 [2]	IC50 [3]	IC50 [4]	IC50 [5]	IC50 [6]	SMILES	TNFα trigger IL-6 PIN at 20 μM [2]	IL-1β trigger IL-6 PIN at 20 μM [6]
> 1330 nM	> 20000 nM	> 1330 nM	> 6670 nM	> 6670 nM	54 nM	N#Cc1ccc(-n2cnc3cc(OCCOCCO)c(NC4CCOCC4)nc32)nc1 [Compound 1, 6-[6-[2-(2-hydroxy-ethoxy)-ethoxy]-5-(tetrahydro-pyran-4-ylamino)-imidazo[4,5-b]pyridin-3-yl]-nicotinonitrile]	[54%]	[89%]
1150 nM	> 20000 nM	477 nM	> 1330 nM	944 nM	40 nM	C[C@]1(O)CC[C@@H](Nc2nc3c(cc2OCCOCCO)ncn3-c2ccc(C#N)cn2)CC1 [Compound 12, 6-[6-[2-(2-hydroxyethoxy)ethoxy]-5-[((cis-1,4)-4-hydroxy-4-methylcyclohexyl)amino]imidazo[4,5-b]pyridin-3-yl]pyridine-3-carbonitrile]	[22%]	[80%]
